Data published in the RepoRT retention time repository.
Structures can show the parent of a compound that is named as a salt.

Test: RP, Thermo Scientific Hypersil GOLD, 1.9 µm, 40 °C, 0.4 mL/min; A: water + 0.1% formic acid, pH 3; B: acetonitrile + 0.1% formic acid, pH 3; gradient (min/%B) 0/0 1/0 11/100 13/100 14/0 16/0
Conditions: stereoisomer not certain

LC retention time [min] | Compound
2.66 | O=C(O)C(O)c1cccc(O)c1 (stereo not drawn) [3-Hydroxymandelic acid]
11.2 | C=C(C)C1CCC2(C(=O)O)CCC3(C)C(CCC4C5(C)CCC(O)C(C)(C)C5CCC43C)C12 (stereo not drawn) [Betulinic acid]
4.6 | CC(C)CC(=O)NCC(=O)O [Isovaleroylglycine]
4.72 | Oc1ccc2[nH]ccc2c1 [5-Hydroxyindole]
0.63 | CN(C)CC(=O)O [N-N-dimethylglycine]
3.97 | COC(=O)CCC(=O)O [mono-Methyl hydrogen succinate]
0.93 | CC(=O)NC(CCC(=O)O)C(=O)O (stereo not drawn) [N-ACETYLGLUTAMATE]
0.67 | N[C@H](C(=O)O)c1ccc(O)cc1 [4-HYDROXY-L-PHENYLGLYCINE]
0.87 | Nc1ccc(C(=O)O)cn1 [6-Aminopyridine-3-carboxylic acid]
4.13 | Cc1cc(=O)oc(C)c1C(=O)O [Isodehydracetic acid]
12.1 | CCCCCCCCC=CCCCCCCCC(=O)OCC(O)CO (stereo not drawn) [OLEOYL-GLYCEROL]
10.8 | CCCCCCCCCCCCCC=CC(O)C(CO)NC(C)=O [N-Acetyl-D-sphingosine]
4.86 | CC(=O)NCCc1c[nH]c2ccc(O)cc12 [N-ACETYLSEROTONIN]
0.82 | CCCC(N)C(=O)O (stereo not drawn) [NORVALINE]
0.74 | Nc1ncnc2nc[nH]c12 [ADENINE]
0.92 | OCC(O)c1ccc(O)c(O)c1 (stereo not drawn) [3-4-DIHYDROXYPHENYLGLYCOL]
1.13 | Nc1ccn(C2CC(O)C(COP(=O)([O-])OP(=O)([O-])[O-])O2)c(=O)n1 (stereo not drawn) [DEOXYCYTIDINE-DIPHOSPHATE]
6.35 | O=C(O)C(=O)CCc1ccccc1 [2-oxo-4-phenyl-butyric acid]
0.71 | NCCCCC(=O)O [5-AMINOPENTANOATE]
10.5 | CC(CCC(=O)O)C1CCC2C3CCC4CC(O)CCC4(C)C3CCC12C (stereo not drawn) [LITHOCHOLATE]
4.11 | CC(C)(CO)C(O)C(=O)NCCC(=O)O (stereo not drawn) [PANTOTHENATE]
0.66 | CNC(CCC(=O)O)C(=O)O (stereo not drawn) [N-METHYLGLUTAMATE]

LC retention time [min] | Compound
4.1 | C/C(=C\C(=O)O)CC(=O)O [(E)-3-Methylglutaconic acid]
5.43 | O=C(O)C=Cc1ccc(O)cc1 [4-COUMARATE]
0.83 | O=C(O)CC(=O)O [MALONATE]
0.67 | C[N+](C)(C)CCCC(=O)O [DEOXYCARNITINE]
6.15 | CC=CC=CC(=O)O [SORBATE]
0.82 | O=C(O)C=Cc1cnc[nH]1 [UROCANATE]
8.76 | CC(CCC(=O)O)C1CCC2C3CCC4CC(O)CCC4(C)C3CC(=O)C12C (stereo not drawn) [5b-cholanic acid-3a-OL-12-ONE]
6.1 | CC(=O)c1ccc(O)cc1O [2'-4'-DIHYDROXYACETOPHENONE]
0.61 | OC1C(O)C(O)C(O)C(O)C1O (stereo not drawn) [MYOINOSITOL]
8.07 | C=C(C)C1CC=C(CO)CC1 [(S)-(-)-Perillyl alcohol]
3.73 | COC1C(O)C(CO)OC1n1cnc2c(=O)[nH]cnc21 (stereo not drawn) [2'-O-Methylinosine]
5.61 | CCN(CC)CCCC(C)Nc1c2ccc(Cl)cc2nc2ccc(OC)cc12 (stereo not drawn) [quinacrine]
11.7 | CCCCCCC=CCCCCCCCC(=O)O [PALMITOLEATE]
4.02 | Cn1cnc2c1c(=O)[nH]c(=O)n2C [THEOBROMINE]
8.5 | c1ccc(CNc2ccccc2)cc1 [N-benzylaniline]
0.66 | O=P(O)(O)OCC1OC(O)(CO)C(O)C1O (stereo not drawn) [FRUCTOSE 6-PHOSPHATE]
0.78 | Nc1nc2nc[nH]c2c(=O)[nH]1 [GUANINE]
0.67 | OCC1OC(OCC2OC(O)(CO)C(O)C2O)C(O)C(O)C1O (stereo not drawn) [PALATINOSE]
6.26 | O=C(O)c1ccccc1O [SALICYLATE]
4.13 | CC(C)C(O)C(=O)O (stereo not drawn)
0.64 | NCCOP(=O)(O)OP(=O)(O)OCC1OC(n2ccc(N)nc2=O)C(O)C1O (stereo not drawn) [CDP-ETHANOLAMINE]
5.43 | CCCCC(O)C(=O)O (stereo not drawn) [2-hydroxycaproic acid]

LC retention time [min] | Compound
5.13 | O=Cc1ccc(O)cc1 [4-HYDROXYBENZALDEHYDE]
0.78 | CC(=O)C(=O)O [pyruvic acid]
0.72 | NC(CCS)C(=O)O (stereo not drawn) [HOMOCYSTEINE]
0.69 | CC(=O)OCC(N)C(=O)O (stereo not drawn) [O-ACETYLSERINE]
7.42 | NC(Cc1cc(I)c(Oc2cc(I)c(O)c(I)c2)c(I)c1)C(=O)O (stereo not drawn) [THYROXINE]
4.1 | Nc1nc2c(ncn2C2OC(COP(=O)(O)OP(=O)(O)OC3OC(CO)C(O)C(O)C3O)C(O)C2O)c(=O)[nH]1 (stereo not drawn) [GUANOSINE DIPHOSPHATE MANNOSE]
6.31 | CC(C)CC(O)C(=O)O (stereo not drawn) [2-Hydroxyisocaproic acid]
0.82 | O=C([O-])c1ccccn1 [PICOLINATE]
5.11 | O=C(O)Cc1cccc(O)c1 [3-HYDROXYPHENYLACETATE]
6.6 | Cc1ccc(O)c(O)c1 [4-METHYLCATECHOL]
0.83 | O=c1[nH]cnc2nc[nH]c12 [HYPOXANTHINE]
0.83 | CCC(NC(=O)CCC(N)C(=O)O)C(=O)NCC(=O)O (stereo not drawn) [OPHTHALMATE]
9.25 | CC(=O)OCC(=O)C1CCC2C3CCC4=CC(=O)CCC4(C)C3CCC12C (stereo not drawn) [DEOXYCORTICOSTERONE ACETATE]
0.81 | c1ncc2[nH]cnc2n1 [PURINE]
1.14 | [NH3+]C(C(=O)[O-])C(O)c1ccccc1 (racemic) [L-Threo-3-Phenylserine (DL-3-Phenylserine)]
4.64 | O=C(O)c1ccc2ccccc2n1 [2-QUINOLINECARBOXYLATE]
0.9 | Nc1ccccc1O [2-AMINOPHENOL]
4.27 | Cn1c(=O)[nH]c2[nH]c(=O)n(C)c2c1=O [1-7-Dimethyluric acid]
8.73 | CC(CCC(=O)NCCS(=O)(=O)O)C1CCC2C3CCC4CC(O)CCC4(C)C3CCC12C (stereo not drawn) [LITHOCHOLYLTAURINE]
6.03 | Cc1cc2nc3[nH]c(=O)[nH]c(=O)c3nc2cc1C [LUMICHROME]
0.82 | Cc1cn(C2CC(O)C(COP(=O)(O)O)O2)c(=O)[nH]c1=O (stereo not drawn) [THYMIDINE-MONOPHOSPHATE]
1.36 | O=C(O)CC(CC(=O)O)C(=O)O [Tricarballylic acid]

LC retention time [min] | Compound
13.9 | CC(C)=CCCC(C)C1CCC2C3CC=C4CC(O)CCC4(C)C3CCC12C (stereo not drawn) [DESMOSTEROL]
8.63 | CCCCCCCCCCCC(=O)OC(CC(=O)[O-])C[N+](C)(C)C (stereo not drawn) [LAUROYLCARNITINE]
12.7 | CCCCCCCCCCCCCCCCC(=O)O [HEPTADECANOATE]
5.82 | O=C(O)/C=C/c1cccc(O)c1 [trans-3-Hydroxycinnamic acid (m-Coumaric acid)]
0.8 | O=C(O)CC(=O)CC(=O)O [1-3-Acetonedicarboxylic acid]
0.62 | NC(=O)C[C@H](N)C(=O)O [L-Asparagine]
5.21 | CC(C)(CCC(=O)O)C(=O)O [2-2-Dimethylglutaric acid]
1.77 | Nc1ccc(C(=O)NCC(=O)O)cc1 [Aminohippuric acid]
0.65 | Cc1ncc(C[n+]2csc(CCOP(=O)([O-])OP(=O)(O)O)c2C)c(N)n1 [THIAMINE PYROPHOSPHATE]
6.42 | O=c1ccc2ccccc2o1 [Coumarin]
0.6 | NC(CCCC(N)C(=O)O)C(=O)O (stereo not drawn) [LL-2-6-DIAMINOHEPTANEDIOATE]
0.65 | NCC(O)c1ccc(O)c(O)c1 (stereo not drawn) [NORADRENALINE]
0.82 | Cn1cnc2nc(N)[nH]c(=O)c21 [7-methylguanine]
0.88 | Nc1c(O)cccc1C(=O)CC(N)C(=O)O (stereo not drawn) [HYDROXYKYNURENINE]
0.74 | Nc1ccn(C2CC(O)C(COP(=O)(O)O)O2)c(=O)n1 (stereo not drawn) [DEOXYCYTIDINE MONOPHOSPHATE]
14.6 | CCCCCCCCCCCCCCCCCCCCCCC(=O)[O-] [TRICOSANOATE]
3.66 | CC1OC(n2cnc3c(N)ncnc32)C(O)C1O (stereo not drawn) [5'-DEOXYADENOSINE]
0.87 | O=C([O-])c1c[nH]c(=O)[nH]c1=O [URACIL 5-CARBOXYLATE]
6.02 | O=C(C=Cc1ccc(O)c(O)c1)OC(Cc1ccc(O)c(O)c1)C(=O)O (stereo not drawn) [ROSMARINATE]
4.92 | CC(C)CC(=O)OC(CC(=O)[O-])C[N+](C)(C)C [Isovaleryl-L-carnitine]
1.69 | CC(=O)NCCCC(=O)O [4-ACETAMIDOBUTANOATE]

Compound | LC retention time [min]
NCCc1cc(O)c(O)cc1O [6-HYDROXYDOPAMINE] | 0.77
CN1C2CC(OC(=O)C(CO)c3ccccc3)CC1C1OC12 (single isomer, unassigned; (-)) [(-)-Scopolamine hydrochloride] | 4.91
O=C(O)CCCCCCCCCO [10-HYDROXYDECANOATE] | 6.79
CC1NCCc2cc(O)c(O)cc21 (stereo not drawn) [SALSOLINOL] | 0.82
NCCc1ccc(O)cc1 [TYRAMINE] | 1.24
CS(=N)(=O)CCC(N)C(=O)O (stereo not drawn) [METHIONINE SULFOXIMINE] | 0.62
COc1cc(CCN)ccc1O [3-METHOXYTYRAMINE] | 2.47
NC1CCSC1=O (stereo not drawn) [HOMOCYSTEINE THIOLACTONE] | 0.72
O=C(O)c1cncc(O)c1 [5-Hydroxynicotinic acid] | 0.83
NCC(O)c1ccccc1 (stereo not drawn) [PHENYLETHANOLAMINE] | 2.24
Cn1cncc1CCN [3-METHYLHISTAMINE] | 0.57
